Patent publication US20250270165A1, “COMPOSITIONS FOR AND METHODS OF MODULATING RNA STABILITY” (Duke University, priority 2022, published 2025)
Several values for one entry are separate records, joined by “and”; a condition that tells them apart may be missing. Equal values may be shown once. Entries after “also recorded” stand apart in the source; their conditions may differ. Read-outs that look alike come from different tables or passages of the source.

What was measured:
[1] = test system: MALAT1 triple helix; experiment: RiboGreen indicator displacement assay (IDA); assay type: binding, human
Experimental: Indicator Displacement Assay (DIA).
The protocol was adapted from a previously reported procedure. (Donlic A, et al. (2020) Nucleic Acids Res. 48(14):7653-7664). A serial dilution of the MALAT1 triple helix RNA was performed in HEPES buffer (20 mM HEPES-KOH, 52.6 mM KCl. 0.1 mM MgCl2, pH=7.4) in a 96 well plate in triplicate. […] of each dilution were transferred to a 384 well plate followed by […] of a 500 nM solution of RiboGreen dye in the same buffer (Invitrogen™). The plates were excited at 487 nm (8 nm slit) and emission was recorded at 530 nm (8 nm slit, focal height 11.3 mm) using a CLARIOstar plate reader (BMG labtech). The affinity of the dye for the RNA construct was determined by fitting the raw fluorescence in GraphPad Prism version 8.3.1 for Macintosh (GraphPad Software, La Jolla California USA, (www.graphpad.com)) by fitting to the Log[Agonist]vs. response-variable slope model that using Equation (1) below.
where Y is normalized % change in fluorescence intensity, X is RNA concentration, Bottom is lowest fluorescence % change and Top is highest fluorescence % change. Affinity of the dye for the RNA construct was used as the ideal RNA concentration (174 nM) for small molecule titrations.
A serial dilution of small molecule (0, 0.5 μM, […], 2.5 μM, […], 7.5 μM, 10.0 μM, 12.5 μM, 25 μM, 50 μM, 75 μM, 100 μM, 125 µM, 150 µM, 250 μM, 500 µM) was performed in HEPES buffer (20 mM HEPES-KOH, 52.6 mM KCl, 0.1 mM MgCl2, pH=7.4) in a 96 well plate in triplicate. Then, 8 μL of each dilution were transferred to a 384 well plate, followed by 8 μL of a 174 nM solution of MALAT1 RNA and 0.5 mM of RiboGreen™ (Invitrogen™). The RNA was previously annealed by heating to 95° C. for 5 minutes and cooling to 0° C. on ice for 30 minutes. The 384 well plates were shaken for 5 minutes, centrifuged at 4000 rpm for 1 minute, and incubated in the dark for 20 minutes. The plates were excited at 487 nm (8 nm slit) and emission was read at 525 nm (8 nm slit, focal height […]) using a CLARIOstar plate reader (BMG Labtech). Percent fluorescence indicator displacement (% FID) was calculated by subtracting and, subsequently, dividing by the blank wells with RNA-dye complex and no small molecule as shown in Equation (2).
Where F0 is the fluorescence of the blank well with RNA+dye and no small molecule and F is the fluorescence of the well with all three components (RNA+dye+small molecule).
Each technical triplicate was averaged, and the resulting FID values were averaged between three independent experiments. The binding curve and Log(CD50) value was obtained by using a non-linear fit curve (Log[Agonist]vs. response) with variable slope at four parameters (GraphPad Prism Software version for Macintosh 8.3.1, La Jolla, California, USA (www.graphpadprism.com)) as shown in Equation 1. Reported values are averages of three independent experiments standard deviation.

[2] = test system: MALAT1 triple helix; experiment: Differential scanning fluorimetry (DSF), triplex thermal stability; assay type: binding, human
Experimental: Differential Scanning Fluorimetry. Differential scanning fluorimetry experiments were performed as previously reported. (Donlic A, et al. (2020) Nucleic Acids Res. 48(14):7653-7664). All experiments were performed in white 96 well plates in a LightCycler® 96 (Roche). In a typical experiment, 4 μM of RNA was annealed in the same buffer used for indicator displacement assays (20 mM HEPES-KOH, 52.6 mM KCl, 0.1 mM MgCl2, pH=7.4) by heating at 95° C. for 3 minutes, snap-cooling on ice for 10 minutes, and leaving the solution at room temperature for 1 hr. Then, 42 μL of this solution was aliquoted to wells and 5 μM of ligand was added (2.5 μL of water, 2.0 μL of DMSO, 0.5 μL of 500 μM small molecule stock). The mixture was left to incubate at room temperature for 5 minutes, after which 3 μL of a 20 µM Quant-iT™ RiboGreen™ (ThermoFisher Scientific) dye stock solution in appropriate buffer was added to each well. The 96 well plate was then sealed with an optically clear foil and centrifuged for 1 minute at 4000 rpm prior to being placed in the instrument. The light cycler program was created by selecting the melting curve method; fluorescence intensity was monitored using the SYBR Green I/HRM dye filter combination (465-510 nm) from 37-98° C. at a ramp rate of 0.01° C./second with 150 acquisitions per ° C. Melting profiles were obtained by Tm analysis in the LightCycler® 96 software (SW 1.1).

[3] = test system: MALAT1 triple helix; experiment: RNase A enzymatic degradation assay; assay type: biochemical, human; details: for stabilizing or destabilizing compound as listed in the description: listing in an aspect, degradation in an enzymatic assay versus control
Experimental: RNase A Enzymatic Degradation Assay.
The procedure was adapted from a published protocol for exonucleolytic enzymatic degradation assay. (Donlic A, et al. (2020) Nucleic Acids Res. 48(14):7653-7664). The MALAT1 destabilizing small molecules published by Le Grice (Abulwerdi F A, et al. (2019) ACS Chem Biol. 14(2):223-235) and co-workers SM5 and SM16 were purchased from ChemBridge. For a typical 70 μL reaction, […] of MALAT1 triple helix RNA was annealed in the same buffer used for IDA and DSF experiments (20 mM HEPES-KOH, 52 mM KCl, 0.1 mM MgCl2, pH=7.4) by heating at 95° C. for 3 minutes, snap-cooling on ice for 10 minutes, and leaving the solution at room temperature for 1 hr.
RNase A enzyme (ThermoFisher) was diluted to 1.46 nM and incubated with 1 M NaCl for 30-35 minutes to achieve ssRNA selectivity as reported. (Struhl K, et al. (1989) Current Protocols in Molecular Biology. 8(1):3.13.1-3.13.3). Next, the RNA was mixed with […] of a CC-rich DNA duplex, 0.2 mM of small molecule/DMSO and incubated at room temperature for 20 minutes. Following the incubation, […] of RNase A was added, and the reaction was incubated at 37° C. for 1 hour in a thermal cycler with a heated lid (Eppendorf). 4 μL timepoint aliquots were taken at 0, 5, 10, 30, and 60 minutes, 4 μL of 2×RNA loading dye was added to each aliquot (ThermoFischer Scientific), and samples were stored at −80° C. prior to gel analysis. Reactions were analyzed on pre-cast 15% PAGE-Urea gels (Invitrogen) in 1×TBE buffer. Aliquots were thawed from −80° C. storage and heated to 95° C. for 15 minutes prior to gel loading and […] were loaded in each well. Gels were run for 45 minutes at 180 V, stained with Diamond™ Nucleic Acid dye (Promega), and visualized on an iBright 500 (ThermoFisher). DMSO controls were ran with every set of 4 small molecules to ensure consistency of enzyme activity and RNA integrity. Gel band intensity of the MALAT1 triple helix and DNA loading control were quantified using ImageJ software. (Rueden C T, et al. (2017) BMC Bioinformatics. 18(1):529).
To quantify time-dependent endonucleolytic degradation for each sample, the intensity was normalized using Equation (3), and fold-difference was calculated as listed in Equation (4) as previously reported. (Donlic A, et al. (2020) Nucleic Acids Res. 48(14):7653-7664).
where y is fold-difference of the exonucleolytic degradation for the specific sample, with normalized areas for its specific time point x and time point 0 calculated as described in Equation (3). Percent RNA degraded was calculated for every time point using Equation (5).
% RNA degraded=(Normalized area (t0)−Normalized area (tx))*100 (Equation 5)
Experimental results shown in FIG. 6C are plotted as three independent replicates and standard deviation between replicates as error bars. Relative fold change between treated condition and DMSO was calculated from Equation (6).

[4] = test system: LNCaP cells; experiment: MTT assay in LNCaP cells; assay type: cell-based, human; details: for IC50: Homo sapiens
From the text: The MTT reagent (3-(4,5-dimethylthiazol-2-yl)-2,5-diphenyl-2H-tetrazolium bromide) is a mono-tetrazolium salt that consists of a positively charged quaternary tetrazole ring core containing four nitrogen atoms surrounded by three aromatic rings including two phenyl moieties and one thiazolyl ring. Reduction of MTT results in disruption of the core tetrazole ring and the formation of a violet-blue water-insoluble molecule called formazan. The MTT reagent can pass through the cell membrane as well as the mitochondrial inner membrane of viable cells presumably due to its positive charge as well as its lipophilic structure and is reduced to formazan by metabolically active cells. The chromogenic nature of this redox chemical reaction provides a colorimetric-based measurement of intracellular formazan production based on which the MTT assay was developed. Consequently, the assay has extensive utility as a cell metabolic activity assay.
In the first set of […] experiments, four (4) members of the small molecule library were examined in a MTT assay. […] The IC50 values and trends were similar to the apparent small molecule affinities for MALAT-1, supporting a MALAT-1 related mechanism for the toxicity. […] Ongoing cytotoxicity studies using other DMZ small molecule analogs (as well as DMZ-5, DMZ-P13, and DMZ-P17) continue to illuminate mechanism of action regarding toxicity to cancer cells.

[5] = 5-minute time point, relative to DMSO control
[6] = 48 hours, read-out: IC50 at 48 hours

## N=C(NCCc1cccnc1)c1cccc(/N=N/Nc2cccc(C(=N)NCCc3cccnc3)c2)c1 [DMZ-M3]
[1]
  affinity for the MALAT1 triple helix (IDA), in words: moderate affinity
[2]
  effect on MALAT1 triplex thermal stability (DSF), in words: negligible thermal stabilization

## N=C(NCc1ccccc1)c1cccc(/N=N/Nc2cccc(C(=N)NCc3ccccc3)c2)c1 [DMZ-M4]
[1]
  affinity for the MALAT1 triple helix (IDA), in words: mediocre affinity
[1]; 16-point titration, 20 mM HEPES-KOH, 52 mM KCl, 0.1 mM MgCl2, pH 7.4
  CD50 (50% competitive displacement dose): 36.6 µM
[2]
  effect on MALAT1 triplex thermal stability (DSF), in words: increases in thermal stability; also recorded: mediocre affinity and thermal stabilization
[3]; 5-minute time point
  increase of the amount of MALAT1 degraded at 5 minutes: 2 fold and > 2 fold
[3]; [5]
  stabilizer or destabilizer of MALAT1 triplex (RNase A degradation): destabilizers

## N=C(NCc1ccc(-c2ccccc2)cc1)c1cccc(/N=N/Nc2cccc(C(=N)NCc3ccc(-c4ccccc4)cc3)c2)c1 [DMZ-M7]
[4]; [6]
  IC50: 2.9 µM

## CN1CCN(CCNC(=N)c2cccc(/N=N/Nc3cccc(C(=N)NCCN4CCN(C)CC4)c3)c2)CC1 [DMZ-M10]
[4]
  IC50 relative to other tested library members, in words: higher IC50

## N=C(NCc1ccco1)c1cccc(/N=N/Nc2cccc(C(=N)NCc3ccco3)c2)c1 [DMZ-M15]
[1]
  affinity for the MALAT1 triple helix (IDA), in words: moderate affinity
[2]
  effect on MALAT1 triplex thermal stability (DSF), in words: negligible thermal stabilization
[3]
  stabilizing or destabilizing compound as listed in the description: stabilizing; also recorded: destabilizing

## CN(C)c1ccc(CN2CCC(CCNC(=N)c3ccc(/N=N/N(C)c4ccc(C(=N)NCCC5CCN(Cc6ccc(N(C)C)cc6)CC5)cc4)cc3)CC2)cc1 [DMZ-NMe-P38]
[3]
  stabilizing or destabilizing compound as listed in the description: destabilizing

## CN(/N=N/c1ccc(C(=N)NCCC2CCN(Cc3ccccc3)CC2)nc1)c1ccc(C(=N)NCCC2CCN(CC3C=CC=CC3)CC2)nc1 (stereo not shown) [DMZ-NMe-mPy-P1]
[3]
  stabilizing or destabilizing compound as listed in the description: destabilizing

## N=C(NCc1ccccc1)c1ccccc1/N=N/Nc1ccccc1C(=N)NCc1ccccc1 [DMZ-O4]
[1]
  affinity for the MALAT1 triple helix (IDA), in words: no affinity

## N=C(NCc1ccc(Cl)cc1)c1ccccc1/N=N/Nc1ccccc1C(=N)NCc1ccc(Cl)cc1 [DMZ-O5]
[3]; [5]
  stabilizer or destabilizer of MALAT1 triplex (RNase A degradation): much stronger destabilizing effect than DMZ-P5

## N=C(NCc1ccccc1Cl)c1ccccc1/N=N/Nc1ccccc1C(=N)NCc1ccccc1Cl [DMZ-O6]
[3]
  stabilizing or destabilizing compound as listed in the description: destabilizing; also recorded: stabilizing

## N=C(N)c1ccc(/N=N/Nc2ccc(C(=N)N)cc2)cc1 [DMZ-P0, diminazene, reference compound]
[2]
  effect on MALAT1 triplex thermal stability (DSF), in words: increases in thermal stability
[3]; [5]
  stabilizer or destabilizer of MALAT1 triplex (RNase A degradation): destabilizers
[4]
  IC50 relative to other tested library members, in words: much higher IC50

## CN(C)CCCNC(=N)c1ccc(/N=N/Nc2ccc(C(=N)NCCCN(C)C)cc2)cc1 [DMZ-P1]
[2]
  effect on MALAT1 triplex thermal stability (DSF), in words: increases in thermal stability
[2]; equimolar ratio of RNA:small molecule, compared to DMSO vehicle
  effect on Tm1 (ΔTm1): approximately 6.1 °C
[3]; [5]
  graded stabilizer/destabilizer class (change in degradation): weak destabilizer (weak destabilizer (<50% increase in degradation))
  stabilizer or destabilizer of MALAT1 triplex (RNase A degradation): destabilizers

## N=C(NCc1ccc(Cl)cc1)c1ccc(/N=N/Nc2ccc(C(=N)NCc3ccc(Cl)cc3)cc2)cc1 [DMZ-P5]
[1]; subunit R-5
  fold higher affinity with the para scaffold versus the ortho scaffold (DMZ-O5): 13 fold

## N=C(NCCC1CCN(Cc2ccccc2)CC1)c1ccc(/N=N/Nc2ccc(C(=N)NCCC3CCN(Cc4ccccc4)CC3)cc2)cc1 [DMZ-P13]
[4]; [6]
  IC50: 4.1 µM
[4]; 72 hours, read-out: IC50 at 72 hours
  IC50: 2.7 µM

## CCN(CCCCNC(=N)c1ccc(N/N=N/c2ccc(C(=N)NCCCN(CC)Cc3ccccc3)cc2)cc1)Cc1ccccc1 [DMZ-P14]
[3]
  stabilizing or destabilizing compound as listed in the description: stabilizing; also recorded: destabilizing
